Source: publication PMC12498416, “Design of Tau Aggregation Inhibitors Using Iterative Machine Learning and a Polymorph-Specific Brain-Seeded Fibril Amplification Assay” (Journal of the American Chemical Society, 2025)

Assays:
[1] = target: T1, K12 tau (first-generation AD-brain-seeded K12 fibrils) (Homo sapiens, UniProt P10636, C639A); experiment: fluorescence polarization with K12 fibrils; conditions: 10 μM compound; AD-seeded K12 fibrils (monomer equivalents); 250 mM Na3citrate, 10 mM HEPES pH 7.4; 1% DMSO; room temperature; one-step binding fit
T1 construct: gene MAPT; 3R fragment; E. coli; amyloid fibrils seeded with Alzheimer's disease brain homogenate, heparin-free

[2] = target: T1, K12 tau (first-generation AD-brain-seeded K12 fibrils); experiment: ThT seeded aggregation kinetics ([…]/t1/[…]); type: biochemical; conditions: read-out: KIC50; 5 μM K12 monomer seeded with 50 nM first-generation AD-derived K12 seeds; 250 mM Na3citrate, 10 mM HEPES pH 7.4; 1% DMSO; quiescent; inhibition of fibril formation

T1 sequence (P10636 561-717 C639A): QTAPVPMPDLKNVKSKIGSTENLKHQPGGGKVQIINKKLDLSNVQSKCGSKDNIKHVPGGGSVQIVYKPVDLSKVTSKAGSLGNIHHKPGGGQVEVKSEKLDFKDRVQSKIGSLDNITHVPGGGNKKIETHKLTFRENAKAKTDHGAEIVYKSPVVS

Cc1noc(C2CCN(C(=O)CNC(=O)c3ccccc3)C2)n1 (stereo not shown) [I1.21]
Kd [1]: 1580 ± 150 nM | IC50 [2]: 2.6 ± 0.5 µM

Cc1noc(C2CCN(C(=O)CCCc3ccccc3)CC2)n1 [I1.51]
Kd [1]: 740 ± 280 nM | IC50 [2]: 7.4 ± 5 µM
